# Tested on: HBV
# Assay: HBV inhibition assay in HepAD38 cells (extracellular HBV DNA by direct qPCR)
# Assay type: cell-based
# Conditions: Hepatitis B virus, compound at 0.1 µM, 96 hours, relative to non-treated reference, read-out: Anti HBV Activity (conc µM)
# Procedure, shortened: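 HepAD38 cells (HepG2, tetracycline-off HBV) induced in tetracycline-free medium, treated 96 h at 37 °C with compound, 0.5% DMSO. Extracellular HBV DNA quantified by direct SYBR qPCR of lysed supernatant, as % of untreated; EC50 from 8-point 1:2 curves; cytotoxicity by CellTiter-Blue.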
row,Compound,inhibition at 0.1 µM
1,"Cc1cc2c(cc1C(=O)Nc1cc(F)c(F)c(F)c1)S(=O)(=O)N([C@H]1CC[C@H](O)CC1)C(=O)N2 [Example E122, trans-2-(4-hydroxycyclohexyl)-6-methyl-3-oxo-N-(3,4,5-trifluorophenyl)-3,4-dihydro-2H-benzo[e][1,2,4]thiadiazine-7-carboxamide 1,1-dioxide]",> 50%
2,"O=C(Nc1ccc(F)c(Cl)c1)c1ccc2c(c1)S(=O)(=O)N([C@H]1CC[C@H](O)CC1)C(=O)N2 [Example E123, N-(3-chloro-4-fluorophenyl)-2-((1r,4r)-4-hydroxycyclohexyl)-3-oxo-3,4-dihydro-2H-benzo[e][1,2,4]thiadiazine-7-carboxamide 1,1-dioxide]",> 50%

# Same assay, conditions: Hepatitis B virus, compound at 0.5 µM, 96 hours, relative to non-treated reference, read-out: Anti HBV Activity (conc µM)
row,Compound,inhibition at 0.5 µM
1,"O=C(Nc1cc(F)c(F)c(F)c1)c1cnc2c(c1)S(=O)(=O)N([C@H]1CC[C@H](O)CC1)C(=O)N2 [Example E121, trans-2-(4-hydroxycyclohexyl)-3-oxo-N-(3,4,5-trifluorophenyl)-3,4-dihydro-2H-pyrido[2,3-e][1,2,4]thiadiazine-7-carboxamide 1,1-dioxide]",< 50%
2,"O=C(Nc1cc(F)c(F)c(F)c1)c1ccc2c(c1)S(=O)(=O)N([C@H]1C[C@@H](O)C1)C(=O)N2 [Example E124, Cis-2-(3-hydroxycyclobutyl)-3-oxo-N-(3,4,5-trifluorophenyl)-3,4-dihydro-2H-benzo[e][1,2,4]thiadiazine-7-carboxamide 1,1-dioxide]",> 50%
3,"O=C(Nc1cc(F)c(F)c(F)c1)c1ccc2c(c1)S(=O)(=O)N([C@H]1C[C@H](O)C1)C(=O)N2 [Example E125, Trans-2(3-hydroxycyclobutyl)-3-oxo-N-(3,4,5-trifluorophenyl)-3,4-dihydro-2H-benzo[e][1,2,4]thiadiazine-7-carboxamide 1,1-dioxide]",> 50%
4,"O=C(Nc1cc(F)c(F)c(F)c1)c1ccc2c(c1)S(=O)(=O)N([C@H]1C[C@@H](O)C1)CN2 [Example E126, Cis-2-(3-hydroxycyclobutyl)-N-(3,4,5-trifluorophenyl)-3,4-dihydro-2H-benzo[e][1,2,4]thiadiazine-7-carboxamide 1,1-dioxide]",< 50%
5,"O=C(Nc1cc(F)c(F)c(F)c1)c1ccc2c(c1)S(=O)(=O)N([C@H]1C[C@H](O)C1)CN2 [Example E127, Trans-2-(3-hydroxycyclobutyl)-N-(3,4,5-trifluorophenyl)-3,4-dihydro-2H-benzo[e][1,2,4]thiadiazine-7-carboxamide 1,1-dioxide]",< 50%
6,"O=C(Nc1cc(F)c(F)c(F)c1)c1ccc2c(c1)S(=O)(=O)N(c1cccnc1)C(=O)N2 [Example E128, 3-oxo-2-(pyridin-3-yl)-N-(3,4,5-trifluorophenyl)-3,4-dihydro-2H-benzo[e][1,2,4]thiadiazine-7-carboxamide 1,1-dioxide]",< 50%
7,"O=C(Nc1ccc(F)c(C(F)F)c1)c1ccc2c(c1)S(=O)(=O)N([C@H]1CC[C@H](O)CC1)C(=O)N2 [Example E131, N-(3-(difluoromethyl)-4-fluorophenyl)-2-((1r,4r)-4-hydroxycyclohexyl)-3-oxo-3,4-dihydro-2H-benzo[e][1,2,4]thiadiazine-7-carboxamide 1,1-dioxide]",> 50%
8,"Cc1cc(NC(=O)c2ccc3c(c2)S(=O)(=O)N([C@H]2CC[C@H](O)CC2)C(=O)N3)ccc1F [Example E132, N-(4-fluoro-3-methylphenyl)-2-((1r,4r)-4-hydroxycyclohexyl)-3-oxo-3,4-dihydro-2H-benzo[e][1,2,4]thiadiazine-7-carboxamide 1,1-dioxide]",> 50%
9,"O=C(Nc1cc(F)c(F)c(F)c1)c1ccc2c(c1)S(=O)(=O)N(C1CC=C(CO)CC1)C(=O)N2 (centres unmarked) [Example E134, 2-(4-(hydroxymethyl)cyclohex-3-en-1-yl)-3-oxo-N-(3,4,5-trifluorophenyl)-3,4-dihydro-2H-benzo[e][1,2,4]thiadiazine-7-carboxamide 1,1-dioxide]",> 50%

# Same assay, conditions: Hepatitis B virus, compound at 1 µM, 96 hours, relative to non-treated reference, read-out: Anti HBV Activity (conc µM)
row,Compound,inhibition at 1 µM
1,"O=C(Nc1cc(F)c(F)c(F)c1)c1ccc2c(c1)S(=O)(=O)N1CCC1CN2 (centres unmarked) [Example E107, N-(3,4,5-trifluorophenyl)-1,9,10,10a-tetrahydro-2H-azeto[1,2-b]benzo[f][1,2,5]thiadiazepine-6-carboxamide 4,4-dioxide]",< 50%
2,"O=C(Nc1cc(F)c(F)c(F)c1)c1ccc2c(c1)S(=O)(=O)N1CCOCC1CN2 (centres unmarked) [Example E108, N-(3,4,5-trifluorophenyl)-1,3,4,11,12,12a-hexahydrobenzo[f][1,4]oxazino[4,3-b][1,2,5]thiadiazepine-8-carboxamide 6,6-dioxide]",< 50%
3,"O=C(Nc1cc(F)c(F)c(F)c1)c1ccc2c(c1)S(=O)(=O)n1ccnc1CN2 [Example E109, N-(3,4,5-trifluorophenyl)-10,11-dihydrobenzo[f]imidazo[1,2-b][1,2,5]thiadiazepine-7-carboxamide 5,5-dioxide]",< 50%
4,"O=C(Nc1ccc(F)c(F)c1)c1ccc2c(c1)S(=O)(=O)N1CCN2CC1 [Example E110, N-(3,4-difluorophenyl)-3,4-dihydro-2,5-ethanobenzo[f][1,2,5]thiadiazepine-8-carboxamide 1,1-dioxide]",< 50%
5,"O=C(Nc1cc(F)c(F)c(F)c1)c1ccc2c(c1)S(=O)(=O)N1CCCCC1CO2 (centres unmarked) [Example E111, N-(3,4,5-trifluorophenyl)-1,2,3,4,12,12a-hexahydrobenzo[b]pyrido[1,2-e][1,4,5]oxathiazepine-8-carboxamide 6,6-dioxide]",< 50%
6,"O=C(Nc1cc(F)c(F)c(F)c1)c1ccc2c(c1)S(=O)(=O)N1CCCC[C@@H]1CO2 [Example E112, (R)-N-(3,4,5-trifluorophenyl)-1,2,3,4,12,12a-hexahydrobenzo[b]pyrido[1,2-e][1,4,5]oxathiazepine-8-carboxamide 6,6-dioxide]",< 50%
7,"O=C(Nc1cc(F)c(F)c(F)c1)c1ccc2c(c1)S(=O)(=O)N1CCCC[C@H]1CO2 [Example E113, (S)-N-(3,4,5-trifluorophenyl)-1,2,3,4,12,12a-hexahydrobenzo[b]pyrido[1,2-e][1,4,5]oxathiazepine-8-carboxamide 6,6-dioxide]",< 50%
8,"CC(C)(C)OC(=O)N1CCN2C(COc3ccc(C(=O)Nc4cc(F)c(F)c(F)c4)cc3S2(=O)=O)C1 (centres unmarked) [Example E114, tert-butyl 8-((3,4,5-trifluorophenyl)carbamoyl)-3,4,12,12a-tetrahydrobenzo[b]pyrazino[1,2-e][1,4,5]oxathiazepine-2(1H)-carboxylate 6,6-dioxide]",< 50%
9,"O=C(Nc1cc(F)c(F)c(F)c1)c1ccc2c(c1)S(=O)(=O)N1CCNCC1CO2 (centres unmarked) [Example E115, N-(3,4,5-trifluorophenyl)-1,2,3,4,12,12a-hexahydrobenzo[b]pyrazino[1,2-e][1,4,5]oxathiazepine-8-carboxamide 6,6-dioxide]",< 50%
10,"CC(=O)N1CCN2C(COc3ccc(C(=O)Nc4cc(F)c(F)c(F)c4)cc3S2(=O)=O)C1 (centres unmarked) [Example E116, 2-acetyl-N-(3,4,5-trifluorophenyl)-1,2,3,4,12,12a-hexahydrobenzo[b]pyrazino[1,2-e][1,4,5]oxathiazepine-8-carboxamide 6,6-dioxide]",< 50%
11,"O=C(Nc1cc(F)c(F)c(F)c1)c1ccc2c(c1)S(=O)(=O)N1CC(C1)O2 [Example E117, N-(3,4,5-trifluorophenyl)-3,4-dihydro-2,4-methanobenzo[b][1,4,5]oxathiazepine-8-carboxamide 1,1-dioxide]",< 50%
12,"O=C(Nc1cc(F)c(F)c(F)c1)c1ccc2c(c1)S(=O)(=O)N1CCC(C1)O2 (centres unmarked) [Example E118, N-(3,4,5-trifluorophenyl)-4,5-dihydro-3H-2,5-methanobenzo[b][1,4,5]oxathiazocine-9-carboxamide 1,1-dioxide]",< 50%
13,"O=C(Nc1ccc(F)c(F)c1)c1ccc2c(c1)S(=O)(=O)NC(CO)N2 (centres unmarked) [Example E119, N-(3,4-difluorophenyl)-3-(hydroxymethyl)-3,4-dihydro-2H-benzo[e][1,2,4]thiadiazine-7-carboxamide 1,1-dioxide]",> 50%
14,"CC1(C)Nc2ccc(C(=O)Nc3ccc(F)c(F)c3)cc2S(=O)(=O)N1 [Example E120, N-(3,4-difluorophenyl)-3,3-dimethyl-3,4-dihydro-2H-benzo[e][1,2,4]thiadiazine-7-carboxamide 1,1-dioxide]",> 50%
15,"O=C(Nc1cc(F)c(F)c(F)c1)c1ccc2c(c1)S(=O)(=O)NC(CO)CO2 (centres unmarked) [Example E135, 3-(hydroxymethyl)-N-(3,4,5-trifluorophenyl)-3,4-dihydro-2H-benzo[b][1,4,5]oxathiazepine-8-carboxamide 1,1-dioxide]",< 50%
16,"O=C(Nc1cc(F)c(F)c(F)c1)c1ccc2c(c1)S(=O)(=O)N[C@@H]1CCC[C@@H]1N2 [Example E136, (3aR,10aS)-N-(3,4,5-trifluorophenyl)-2,3,3a,4,10,10a-hexahydro-1H-benzo[f]cyclopenta[c][1,2,5]thiadiazepine-7-carboxamide 5,5-dioxide]",< 50%
17,"O=C(Nc1cc(F)c(F)c(F)c1)c1ccc2c(c1)S(=O)(=O)N[C@H]1CCC[C@H]1N2 [Example E137, (3aS,10aR)-N-(3,4,5-trifluorophenyl)-2,3,3a,4,10,10a-hexahydro-1H-benzo[f]cyclopenta[c][1,2,5]thiadiazepine-7-carboxamide 5,5-dioxide]",< 50%

# Same assay, conditions: compound at 1 µM, 96 hours, relative to non-treated reference
row,Compound,Anti HBV Activity (conc µM)
1,"CN1CCC(N2C(=O)Nc3ccc(C(=O)Nc4cc(F)c(F)c(F)c4)cc3S2(=O)=O)CC1 [Example E133, 2-(1-methylpiperidin-4-yl)-3-oxo-N-(3,4,5-trifluorophenyl)-3,4-dihydro-2H-benzo[e][1,2,4]thiadiazine-7-carboxamide 1,1-dioxide]",A (1) (HBV inhibition greater than 50% at the concentration indicated in the table)
